Reference: ChEMBL document CHEMBL1287797, “Design and synthesis of harzialactone analogues: promising anticancer agents” (2010)

Experiments:
Type in all cases: functional
HL-60 [1] = test: Anticancer activity against human HL60 cells assessed as inhibition of cell growth at 40 ug/ml by MTT assay
ZR-75-1 [2] = test: Anticancer activity against human ZR-75-1 cells assessed as inhibition of cell growth at 10 ug/ml by MTT assay
COLO 205 [3] = test: Anticancer activity against human COLO205 cells assessed as inhibition of cell growth at 10 ug/ml by MTT assay
HL-60 [4] = test: Anticancer activity against human HL60 cells assessed as inhibition of cell growth at 100ug/ml by MTT assay
[5] = Anticancer activity against mouse P388D1 cells assessed as inhibition of cell growth at 10 ug/ml by MTT assay
HeLa [6] = test: Anticancer activity against human HeLa cells assessed as inhibition of cell growth at 5 ug/ml by MTT assay
[7] = Anticancer activity against mouse P388D1 cells assessed as inhibition of cell growth at 40 ug/ml by MTT assay
ZR-75-1 [8] = test: Anticancer activity against human ZR-75-1 cells assessed as inhibition of cell growth at 20 ug/ml by MTT assay
ZR-75-1 [9] = test: Anticancer activity against human ZR-75-1 cells assessed as inhibition of cell growth at 60 ug/ml by MTT assay
HeLa [10] = test: Anticancer activity against human HeLa cells assessed as inhibition of cell growth at 60 ug/ml by MTT assay
[11] = Anticancer activity against mouse P388D1 cells assessed as inhibition of cell growth at 100ug/ml by MTT assay
COLO 205 [12] = test: Anticancer activity against human COLO205 cells assessed as inhibition of cell growth at 5 ug/ml by MTT assay
HeLa [13] = test: Anticancer activity against human HeLa cells assessed as inhibition of cell growth at 80 ug/ml by MTT assay
COLO 205 [14] = test: Anticancer activity against human COLO205 cells assessed as inhibition of cell growth at 80 ug/ml by MTT assay
COLO 205 [15] = test: Anticancer activity against human COLO205 cells assessed as inhibition of cell growth at 40 ug/ml by MTT assay
HL-60 [16] = test: Anticancer activity against human HL60 cells assessed as inhibition of cell growth at 80 ug/ml by MTT assay
ZR-75-1 [17] = test: Anticancer activity against human ZR-75-1 cells assessed as inhibition of cell growth at 80 ug/ml by MTT assay
ZR-75-1 [18] = test: Anticancer activity against human ZR-75-1 cells assessed as inhibition of cell growth at 40 ug/ml by MTT assay
COLO 205 [19] = test: Anticancer activity against human COLO205 cells assessed as inhibition of cell growth at 20 ug/ml by MTT assay
HL-60 [20] = test: Anticancer activity against human HL60 cells assessed as inhibition of cell growth at 10 ug/ml by MTT assay
ZR-75-1 [21] = test: Anticancer activity against human ZR-75-1 cells assessed as inhibition of cell growth at 100ug/ml by MTT assay
HeLa [22] = test: Anticancer activity against human HeLa cells assessed as inhibition of cell growth at 40 ug/ml by MTT assay
[23] = Anticancer activity against mouse P388D1 cells assessed as inhibition of cell growth at 20 ug/ml by MTT assay
COLO 205 [24] = test: Anticancer activity against human COLO205 cells assessed as inhibition of cell growth at 100ug/ml by MTT assay
[25] = Anticancer activity against mouse P388D1 cells assessed as inhibition of cell growth at 5 ug/ml by MTT assay
[26] = Anticancer activity against mouse P388D1 cells assessed as inhibition of cell growth at 60 ug/ml by MTT assay
HL-60 [27] = test: Anticancer activity against human HL60 cells assessed as inhibition of cell growth at 60 ug/ml by MTT assay
ZR-75-1 [28] = test: Anticancer activity against human ZR-75-1 cells assessed as inhibition of cell growth at 5 ug/ml by MTT assay
HeLa [29] = test: Anticancer activity against human HeLa cells assessed as inhibition of cell growth at 10 ug/ml by MTT assay
HL-60 [30] = test: Anticancer activity against human HL60 cells assessed as inhibition of cell growth at 5 ug/ml by MTT assay
HeLa [31] = test: Anticancer activity against human HeLa cells assessed as inhibition of cell growth at 20 ug/ml by MTT assay
HL-60 [32] = test: Anticancer activity against human HL60 cells assessed as inhibition of cell growth at 20 ug/ml by MTT assay
HeLa [33] = test: Anticancer activity against human HeLa cells assessed as inhibition of cell growth at 100ug/ml by MTT assay
COLO 205 [34] = test: Anticancer activity against human COLO205 cells assessed as inhibition of cell growth at 60 ug/ml by MTT assay
[35] = Anticancer activity against mouse P388D1 cells assessed as inhibition of cell growth at 80 ug/ml by MTT assay

SMILES	inhibition at 40 µg/mL (HL-60 [1])	inhibition at 10 µg/mL (ZR-75-1 [2])	inhibition at 10 µg/mL (COLO 205 [3])	inhibition at 100 µg/mL (HL-60 [4])	inhibition at 10 µg/mL [5]	inhibition at 5 µg/mL (HeLa [6])	inhibition at 40 µg/mL [7]	inhibition at 20 µg/mL (ZR-75-1 [8])	inhibition at 60 µg/mL (ZR-75-1 [9])	inhibition at 60 µg/mL (HeLa [10])	inhibition at 100 µg/mL [11]	inhibition at 5 µg/mL (COLO 205 [12])	inhibition at 80 µg/mL (HeLa [13])	inhibition at 80 µg/mL (COLO 205 [14])	inhibition at 40 µg/mL (COLO 205 [15])	inhibition at 80 µg/mL (HL-60 [16])	inhibition at 80 µg/mL (ZR-75-1 [17])	inhibition at 5 µg/mL [25]	inhibition at 5 µg/mL (ZR-75-1 [28])	inhibition at 5 µg/mL (HL-60 [30])	further results
O=C1O[C@@H](CCc2ccccc2)C[C@H]1O	38.7%	35.7%	16.8%	49%	31.5%	23.4%	37.6%	36.1%	37.9%	39%	45.1%	9.18%	41%	65.3%	25.4%	43.2%	43.6%	27.8%	29.5%	28.4%	inhibition at 40 µg/mL (ZR-75-1 [18]): 37.4%; inhibition at 20 µg/mL (COLO 205 [19]): 22.8%; inhibition at 10 µg/mL (HL-60 [20]): 31%; inhibition at 100 µg/mL (ZR-75-1 [21]): 50.7%; inhibition at 40 µg/mL (HeLa [22]): 34%; inhibition at 20 µg/mL [23]: 35.2%; inhibition at 100 µg/mL (COLO 205 [24]): 69.3%; inhibition at 60 µg/mL [26]: 38.3%; inhibition at 60 µg/mL (HL-60 [27]): 40%; inhibition at 10 µg/mL (HeLa [29]): 31.3%; inhibition at 20 µg/mL (HeLa [31]): 31.3%; inhibition at 20 µg/mL (HL-60 [32]): 36.8%; inhibition at 100 µg/mL (HeLa [33]): 62.4%; inhibition at 60 µg/mL (COLO 205 [34]): 36%; inhibition at 80 µg/mL [35]: 40%
O=C1O[C@@H](CCc2ccc(Br)cc2)C[C@H]1O	39.4%	33%	26.2%	52.9%	25.9%	52.3%	34.6%	35.2%	37%	60.6%	52.5%	23.1%	62.5%	72.2%	40.9%	47.7%	38.3%	10.5%	20.9%	20.6%	inhibition at 40 µg/mL (ZR-75-1 [18]): 36.6%; inhibition at 20 µg/mL (COLO 205 [19]): 29.4%; inhibition at 10 µg/mL (HL-60 [20]): 22.6%; inhibition at 100 µg/mL (ZR-75-1 [21]): 42.3%; inhibition at 40 µg/mL (HeLa [22]): 57.5%; inhibition at 20 µg/mL [23]: 31.5%; inhibition at 100 µg/mL (COLO 205 [24]): 75.8%; inhibition at 60 µg/mL [26]: 40.1%; inhibition at 60 µg/mL (HL-60 [27]): 32.6%; inhibition at 10 µg/mL (HeLa [29]): 52.5%; inhibition at 20 µg/mL (HeLa [31]): 54.4%; inhibition at 20 µg/mL (HL-60 [32]): 24.5%; inhibition at 100 µg/mL (HeLa [33]): 69.1%; inhibition at 60 µg/mL (COLO 205 [34]): 43.3%; inhibition at 80 µg/mL [35]: 40.7%
CO[C@@]12[C@H](COC(N)=O)C3=C(C(=O)C(C)=C(N)C3=O)N1C[C@@H]1N[C@@H]12 [MITOMYCIN]	–	–	–	–	–	56.5%	–	–	–	–	–	56.3%	–	–	–	–	–	55.4%	51.3%	53.2%	–
